Twelve compounds from patent publication US20240109918A1, “HETEROCYCLIC COMPOUNDS AND USES THEREOF” (Kumquat Biosciences Inc., priority 2022, published 2024) can be followed below.

One experiment addresses T1, KRASG12D (Homo sapiens, UniProt P01116, G12D).
T1 construct: made in house; host or cells: E. coli BL21 (DE3)
The experiment in a line: Bio-Biochem-PPI-HTRF Ras-SOS1 interaction assay (KRAS G12D). The experiment is classed as biochemical. Conditions: 5 nM. The method, boiled down: (§1)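 Compounds tested in duplicate (10 μM to 0.01 μM) for disruption of His-hSOS1 binding to GST-tagged wild-type or G12D K-Ras in HEPES pH 7.4 buffer. TR-FRET read (Eu donor, XL665 acceptor) after about 10 min or longer; IC50 derived from the 665/620 nm emission ratio.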

The target of the next experiment is T2, KRASwt (Homo sapiens, UniProt P01116).
T2 construct: made in house; host or cells: E. coli BL21 (DE3)
T2 sequence (P01116 1-188 isoform P01116-2): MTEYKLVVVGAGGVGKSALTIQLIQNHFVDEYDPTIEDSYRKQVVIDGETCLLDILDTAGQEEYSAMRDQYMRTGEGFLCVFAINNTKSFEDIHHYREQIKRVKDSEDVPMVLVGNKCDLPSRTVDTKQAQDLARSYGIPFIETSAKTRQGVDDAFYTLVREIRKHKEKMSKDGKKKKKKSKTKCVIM
The experiment in a line: Bio-Biochem-PPI-HTRF Ras-SOS1 interaction assay (KRAS wt). The note with it: 5 nM. The experiment is classed as biochemical. A digest of the protocol:
as §1

The IC50 is the concentration needed to halve the response being measured. The low end stands for greater potency, the high end for weaker potency.

T1 sequence (P01116 1-188 isoform P01116-2 G12D): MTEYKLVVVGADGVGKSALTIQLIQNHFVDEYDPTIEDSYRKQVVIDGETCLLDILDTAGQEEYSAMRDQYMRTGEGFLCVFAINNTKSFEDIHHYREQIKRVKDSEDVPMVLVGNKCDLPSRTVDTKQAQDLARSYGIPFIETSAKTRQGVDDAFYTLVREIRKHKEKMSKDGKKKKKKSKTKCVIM

With `N#Cc1c(N)sc2c(F)ccc(-c3c(Cl)cc4c(N5CCCCC6(CN(C(=O)N7CC(C#N)C7)C6)C5)nc(OC[C@@]56CCCN5C[C@H](F)C6)nc4c3F)c12` [compound 274, 1-(6-(7-(2-amino-3-cyano-7-fluorobenzo[b]thiophen-4-yl)-6-chloro-8-fluoro-2-(((2R,7aS)-2-fluorotetrahydro-1H-pyrrolizin-7a(5H)-yl)methoxy)quinazolin-4-yl)-2,6-diazaspiro[3.6]decane-2-carbonyl)azetidine-3-carbonitrile], the IC50 against KRASG12D and at KRASwt was less than 5 µM in each case.

`N#Cc1c(N)sc2c(F)ccc(-c3c(Cl)cc4c(N5CC(O)CCC6(CN(C(=O)[C@@H]7CC7(F)F)C6)C5)nc(OC[C@@]56CCCN5C[C@H](F)C6)nc4c3F)c12` (stereo partly drawn) [compound 275, 2-amino-4-(6-chloro-4-(2-((S)-2,2-difluorocyclopropane-1-carbonyl)-8-hydroxy-2,6-diazaspiro[3.6]decan-6-yl)-8-fluoro-2-(((2R,7aS)-2-fluorotetrahydro-1H-pyrrolizin-7a(5H)-yl)methoxy)quinazolin-7-yl)-7-fluorobenzo[b]thiophene-3-carbonitrile]: the IC50 on KRASG12D and against KRASwt was less than 5 µM throughout.

In the case of `N#Cc1c(N)sc2c(F)ccc(-c3c(Cl)cc4c(N5CCCCC6(CN(C(=O)C7(C(F)F)CC7)C6)C5)nc(OC[C@@]56CCCN5C[C@H](F)C6)nc4c3F)c12` [compound 276, 2-amino-4-(6-chloro-4-(2-(1-(difluoromethyl)cyclopropane-1-carbonyl)-2,6-diazaspiro[3.6]decan-6-yl)-8-fluoro-2-(((2R,7aS)-2-fluorotetrahydro-1H-pyrrolizin-7a(5H)-yl)methoxy)quinazolin-7-yl)-7-fluorobenzo[b]thiophene-3-carbonitrile], the 50% inhibitory concentration (IC50) at KRASG12D and on KRASwt was less than 5 µM each time.

As for `CC1(C(=O)N2CC3(CCCCN(c4nc(OC[C@@]56CCCN5C[C@H](F)C6)nc5c(F)c(-c6ccc(F)c7sc(N)c(C#N)c67)c(Cl)cc45)C3)C2)CC1(F)F` (stereo partly drawn) [compound 277, 2-amino-4-(6-chloro-4-(2-(2,2-difluoro-1-methylcyclopropane-1-carbonyl)-2,6-diazaspiro[3.6]decan-6-yl)-8-fluoro-2-(((2R,7aS)-2-fluorotetrahydro-1H-pyrrolizin-7a(5H)-yl)methoxy)quinazolin-7-yl)-7-fluorobenzo[b]thiophene-3-carbonitrile], the half-inhibitory concentration (IC50) against KRASG12D and on KRASwt was less than 5 µM each time.

On to `N#Cc1c(N)sc2c(F)ccc(-c3c(Cl)cc4c(N5CCCCC6(CN(C(=O)C7(CN8CCOCC8)CC7)C6)C5)nc(OC[C@@]56CCCN5C[C@H](F)C6)nc4c3F)c12` [compound 278, 2-amino-4-(6-chloro-8-fluoro-2-(((2R,7aS)-2-fluorotetrahydro-1H-pyrrolizin-7a(5H)-yl)methoxy)-4-(2-(1-(morpholinomethyl)cyclopropane-1-carbonyl)-2,6-diazaspiro[3.6]decan-6-yl)quinazolin-7-yl)-7-fluorobenzo[b]thiophene-3-carbonitrile], for which the IC50 on KRASG12D and on KRASwt was less than 5 µM throughout.

Regarding `N#Cc1c(N)sc2c(F)ccc(-c3c(Cl)cc4c(N5CCCCC6(CN(C(=O)C78CC(C#N)(C7)C8)C6)C5)nc(OC[C@@]56CCCN5C[C@H](F)C6)nc4c3F)c12` [compound 279, 2-amino-4-(6-chloro-4-(2-(3-cyanobicyclo[1.1.1]pentane-1-carbonyl)-2,6-diazaspiro[3.6]decan-6-yl)-8-fluoro-2-(((2R,7aS)-2-fluorotetrahydro-1H-pyrrolizin-7a(5H)-yl)methoxy)quinazolin-7-yl)-7-fluorobenzo[b]thiophene-3-carbonitrile], the IC50 against KRASG12D and on KRASwt was less than 5 µM each time.

Turning to `N#Cc1c(N)sc2c(F)ccc(-c3c(Cl)cc4c(N5CCCCC6(CN(C(=O)CC7(C#N)CC7)C6)C5)nc(OC[C@@]56CCCN5C[C@H](F)C6)nc4c3F)c12` [compound 280, 2-amino-4-(6-chloro-4-(2-(2-(1-cyanocyclopropyl)acetyl)-2,6-diazaspiro[3.6]decan-6-yl)-8-fluoro-2-(((2R,7aS)-2-fluorotetrahydro-1H-pyrrolizin-7a(5H)-yl)methoxy)quinazolin-7-yl)-7-fluorobenzo[b]thiophene-3-carbonitrile], the IC50 at KRASG12D and on KRASwt was less than 5 µM each time.

Take `N#Cc1c(N)sc2c(F)ccc(-c3c(Cl)cc4c(N5CCCCC6(CN(C(=O)CC78CC(F)(C7)C8)C6)C5)nc(OC[C@@]56CCCN5C[C@H](F)C6)nc4c3F)c12` [compound 282, 2-amino-4-(6-chloro-8-fluoro-4-(2-(2-(3-fluorobicyclo[1.1.1]pentan-1-yl)acetyl)-2,6-diazaspiro[3.6]decan-6-yl)-2-(((2R,7aS)-2-fluorotetrahydro-1H-pyrrolizin-7a(5H)-yl)methoxy)quinazolin-7-yl)-7-fluorobenzo[b]thiophene-3-carbonitrile]: the half-inhibitory concentration (IC50) on KRASG12D and on KRASwt was less than 5 µM throughout.

`N#Cc1c(N)sc2c(F)ccc(-c3c(Cl)cc4c(N5CCOCC6(CN(C(=O)C(F)Cl)C6)C5)nc(OC[C@@]56CCCN5C[C@H](F)C6)nc4c3F)c12` (stereo partly drawn) [compound 283, 2-amino-4-(6-chloro-4-(2-(2-chloro-2-fluoroacetyl)-6-oxa-2,9-diazaspiro[3.6]decan-9-yl)-8-fluoro-2-(((2R,7aS)-2-fluorotetrahydro-1H-pyrrolizin-7a(5H)-yl)methoxy)quinazolin-7-yl)-7-fluorobenzo[b]thiophene-3-carbonitrile]: the IC50 at KRASG12D and against KRASwt was less than 5 µM in each case.

Consider `N#Cc1c(N)sc2c(F)ccc(-c3c(Cl)cc4c(N5CCCCC6(CN(C(=O)[C@H]7C[C@@H]7F)C6)C5)nc(OC[C@@]56CCCN5C[C@H](F)C6)nc4c3F)c12` [compound 284, 2-amino-4-(6-chloro-8-fluoro-4-(2-((1R,2S)-2-fluorocyclopropane-1-carbonyl)-2,6-diazaspiro[3.6]decan-6-yl)-2-(((2R,7aS)-2-fluorotetrahydro-1H-pyrrolizin-7a(5H)-yl)methoxy)quinazolin-7-yl)-7-fluorobenzo[b]thiophene-3-carbonitrile], for which the IC50 on KRASG12D and on KRASwt was less than 5 µM in each case.

As to `C[C@H]1CN(C(=O)N2CC3(CCCCN(c4nc(OC[C@@]56CCCN5C[C@H](F)C6)nc5c(F)c(-c6ccc(F)c7sc(N)c(C#N)c67)c(Cl)cc45)C3)C2)CCO1` [compound 285, 2-amino-4-(6-chloro-8-fluoro-2-(((2R,7aS)-2-fluorotetrahydro-1H-pyrrolizin-7a(5H)-yl)methoxy)-4-(2-((S)-2-methylmorpholine-4-carbonyl)-2,6-diazaspiro[3.6]decan-6-yl)quinazolin-7-yl)-7-fluorobenzo[b]thiophene-3-carbonitrile], the concentration for half-maximal inhibition (IC50) on KRASG12D and against KRASwt was less than 5 µM throughout.

Take `N#Cc1c(N)sc2c(F)ccc(-c3c(Cl)cc4c(N5CCCCC6(CN(C(=O)C7CC78CC8)C6)C5)nc(OC[C@@]56CCCN5C[C@H](F)C6)nc4c3F)c12` (stereo partly drawn) [compound 286, 2-amino-4-(6-chloro-8-fluoro-2-(((2R,7aS)-2-fluorotetrahydro-1H-pyrrolizin-7a(5H)-yl)methoxy)-4-(2-(spiro[2.2]pentane-1-carbonyl)-2,6-diazaspiro[3.6]decan-6-yl)quinazolin-7-yl)-7-fluorobenzo[b]thiophene-3-carbonitrile]: the IC50 at KRASG12D and against KRASwt was less than 5 µM in each case.
